Measured values reported in patent US20120184006A1, “Reductase Enzymes” (UTAH STATE UNIVERSITY, priority 2011, published 2012).

How the values were obtained:
[1] = target: T1, fatty acyl-CoA reductase (FACoAR) from M. aquaeolei VT8 (Marinobacter nauticus (Marinobacter aquaeolei), UniProt A1U3L3); test: Palmitoyl CoA inhibition of fatty aldehyde (cis-11-hexadecenal) reduction; assay type: biochemical; details: competitive inhibition of cis-11-hexadecenal reduction; 0, 1, 2, 4 μM inhibitor; fit to equation 2; read-out: apparent Ki
T1 sequence (A1U3L3 1-661): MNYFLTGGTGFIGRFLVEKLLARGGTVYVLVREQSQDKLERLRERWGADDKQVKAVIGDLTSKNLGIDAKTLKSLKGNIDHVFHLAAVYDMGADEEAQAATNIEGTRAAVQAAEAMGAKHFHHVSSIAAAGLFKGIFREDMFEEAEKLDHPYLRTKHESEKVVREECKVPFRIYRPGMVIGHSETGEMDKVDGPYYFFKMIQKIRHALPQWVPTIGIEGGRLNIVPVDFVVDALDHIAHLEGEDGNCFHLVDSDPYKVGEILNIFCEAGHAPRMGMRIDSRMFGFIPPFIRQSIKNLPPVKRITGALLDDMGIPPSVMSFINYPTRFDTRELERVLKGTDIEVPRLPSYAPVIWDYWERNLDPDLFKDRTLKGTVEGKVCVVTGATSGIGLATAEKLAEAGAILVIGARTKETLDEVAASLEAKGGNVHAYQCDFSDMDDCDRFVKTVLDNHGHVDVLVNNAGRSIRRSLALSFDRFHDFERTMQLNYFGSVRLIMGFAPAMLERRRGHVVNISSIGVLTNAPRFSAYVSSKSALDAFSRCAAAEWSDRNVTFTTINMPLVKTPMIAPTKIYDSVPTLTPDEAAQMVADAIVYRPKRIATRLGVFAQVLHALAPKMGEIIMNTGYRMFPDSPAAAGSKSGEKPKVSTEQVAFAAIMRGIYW
Experimental: The (◯) denote assays performed with 0 μM palmitoyl CoA, ([…]) denote assays performed with 1 palmitoyl CoA, (□) denote assays performed with 2 μM palmitoyl CoA, and (Δ) denote assays performed with 4 μM palmitoyl CoA. Specific activities are plotted in units of nmol NADP^+ min^−1 mg protein^−1. All assays were conducted in triplicate and are shown with error bars indicating SEM fit to equation 1 in the materials and methods section. The apparent Ki was determined by fitting all four data sets to equation 2 in the materials and methods.
All assays were conducted in a total volume of 1 mL. A buffer containing 50 mM NaCl, 20 mM Tris-HCl pH 7.0, and 0.5 mg/mL BSA was prepared along with a 1 mM stock of aldehyde dissolved in dimethyl sulfoxide (DMSO) or a 0.1 mM stock of the acyl-CoA, and 2.0 trig/mL NADPH. […] Each sample was continuously monitored for the decrease of NADPH at 340 nm on a Varian 50 Bio UV-visible spectrophotometer (Walnut Creek, Calif.). Initial rates were calculated in Excel using the linear initial rates of reaction obtained from the spectrophotometric assays by obtaining the slope from the best. […]
Buffers and solutions were prepared as described above for NADPH assays. […] Reduction of acyl-CoA substrate was monitored by following the increase of the 2-nitro-5-thiobenzoate (NTB^2−) dianion concentration at 412 nm. […]

[2] = target: T1, fatty acyl-CoA reductase (FACoAR) from M. aquaeolei VT8; test: Continuous spectrophotometric NADPH assay (decrease of NADPH at 340 nm); assay type: biochemical; details: FIG. 5, NADPH assay, acyl-CoA substrate
Experimental: All assays were conducted in a total volume of 1 mL. A buffer containing 50 mM NaCl, 20 mM Tris-HCl pH 7.0, and 0.5 mg/mL BSA was prepared along with a 1 mM stock of aldehyde dissolved in dimethyl sulfoxide (DMSO) or a 0.1 mM stock of the acyl-CoA, and […] NADPH. All components including protein were degassed in sealed vials and placed under an argon atmosphere. NADPH was degassed as the solid prior to the addition of degassed buffer. Each assay was conducted by adding 75 μL of the NADPH stock, 58 μg protein for acyl-CoA assays or 15 μg protein for aldehyde assays, varying concentrations of aldehyde or acyl-CoA and buffer to bring the final volume to 1 mL. Each sample was continuously monitored for the decrease of NADPH at 340 nm on a Varian 50 Bio UV-visible spectrophotometer (Walnut Creek, Calif.). Initial rates were calculated in Excel using the linear initial rates of reaction obtained from the spectrophotometric assays by obtaining the slope from the best. In line and calculating nmol of NADPH oxidized per second. (Microsoft, Redmond, Wash.). These initial rates were used to calculate Km and Vmax values using the Igor Pro software package (Wavemetrics, Lake Oswego, Oreg.) fitting the initial rates to the Hill equation (31). NADPH specific activity assays were conducted identically as described above using a fixed 60 μM concentration of the various aldehyde substrates or 6 μM of the various acyl-CoA substrates.

[3] = target: T1, fatty acyl-CoA reductase (FACoAR) from M. aquaeolei VT8; test: Continuous spectrophotometric DTNB assay (release of free CoA); assay type: biochemical; details: for Rate of Reaction (nmol NTB^2− min^−1 mg protein^−1): 6 μM of the respective CoA as substrate; for % Specific Activity of Palmitoyl-CoA: percent of the specific activity of palmitoyl-CoA, 6 μM substrate
Experimental: Buffers and solutions were prepared as described above for NADPH assays. Each assay was conducted by adding 75 μL of the 2 mg/mL NADPH stock solution in buffer, 58 μg of protein, and 10 μL of a 10 mg/mL solution of DTNB in DMSO, varying concentrations of acyl-CoA and buffer to bring the volume to 1 mL. Reduction of acyl-CoA substrate was monitored by following the increase of the 2-nitro-5-thiobenzoate (NTB^2−) dianion concentration at 412 nm. […] These initial rates were used to calculate the apparent K, and Vmax values using the Igor Pro (Wavemetrics, Lake Oswego, Oreg.) software package fitting the initial rates to the Hill equation (Equation 1) where v is the initial velocity, Vmax is the maximum calculated velocity, [S]^n is the concentration of substrate and n is the Hill coefficient, K0.5^n is the approximation of Km or the approximate substrate concentration at which half of Vmax is obtained at a specific value of the Hill coefficient n. In the case of enzyme inhibition, a modified version of the Hill equation allowing for cooperative inhibition (Equation 2) where all of the coefficients are defined as for the Hill equation and the additional [i]^n is the concentration of inhibitor and n is the Hill coefficient. The Ki^n is the approximate concentration of inhibitor it takes to double the K0.5 at a specific value of the Hill coefficient n.

[4] = tested on: FACoAR from M. aquaeolei VT8; test: Initial activity assay, products identified by TLC and GC; assay type: biochemical, Marinobacter aquaeolei VT8; details: 200 μM substrate, NADPH
Experimental: Initial activity assays were conducted using thin layer chromatography (TLC) and a gas chromatography (GC) assay similar to that described previously (29). To test activity, 0.3 mg of protein was added to a reaction vessel along with 200 μM palmitoleyl-CoA and 800 μM NADPH, NADH, NADP^+, NAD^+ in reaction buffer containing 20 mM Tris-HCl pH 7.0 and 50 mM NaCl. Reactions were allowed to proceed for 1 hr before quenching by the addition of 2 mL of hexane. The hexane water mixture was vortexed vigorously for 30 seconds before centrifuging to separate phases. The hexane phase was removed to a clean container and the solvent was removed under a stream of argon. […] The TLC plate was developed in a 2:15:90 volumetric ratio of glacial acetic acid:ethyl ether:hexane. After development, visualization was performed in a sealed jar with iodine crystals for 10 min. The TLC results were verified by GC analysis of the sample prepared in the same way and compared to retention times of known standards.

## CCCCCCCCCCCCCCCC(=O)SCCNC(=O)CCNC(=O)[C@H](O)C(C)(C)COP(=O)(O)OP(=O)(O)OC[C@H]1O[C@@H](n2cnc3c(N)ncnc32)[C@H](O)[C@@H]1OP(=O)(O)O [Palmitoyl-CoA]
[1]
  Ki: 1900 ± 260 nM
[2]
  n (Hill coefficient): 2.6±0.3
[2]; Hill fit
  Vmax: 197±8 nmol NADP^+ min^−1 mg of protein^−1
[3]
  Vmax when CoA release was monitored: ~180 nmol/min/mg
  maximal specific activity (CoA release): 115 nmol of NTB/min/mg protein
  Rate of Reaction (nmol NTB^2− min^−1 mg protein^−1): 54.7 ± 4.7 nmol NTB^2− min^−1 mg protein^−1
  % Specific Activity of Palmitoyl-CoA: 100%
[3]; FIG. 5, DTNB assay
  n (Hill coefficient): 2.8±0.7
[3]; FIG. 5, DTNB assay, release of free CoA, Hill fit, substrate
  Vmax: 115±7 nmol NTB^−2 min^−1 mg of protein^−1

## CCCCCC/C=C\CCCCCCCC(=O)SCCNC(=O)CCNC(=O)[C@H](O)C(C)(C)COP(=O)(O)OP(=O)(O)OC[C@H]1O[C@@H](n2cnc3c(N)ncnc32)[C@H](O)[C@@H]1OP(=O)(O)O [Palmitoleyl-CoA]
[4]
  detectable product of reduction: palmitoleyl alcohol
[3]
  Rate of Reaction (nmol NTB^2− min^−1 mg protein^−1): 53.7 ± 1.1 nmol NTB^2− min^−1 mg protein^−1
  % Specific Activity of Palmitoyl-CoA: 93%
